According to patent US6790951B1, “Expression system in microorganism and its use for expressing heterologous and homologous proteins” (priority 1995, dated 2004):
Ends that are not written are not given here.

What was measured:
[1] = test system: Lactobacillus plantarum C11; assay: Induction of bacteriocin production / gene expression in Lactobacillus plantarum C11; format: cell-based
Protocol: Experiments similar to the ones described in examples 1 and 2 were conducted with the bacteriocin producing strain Lactobacillus plantarum C11. These experiments yielded results that were essentially similar to the results described in examples 1 and 2. The sequence of the amphiphilic inducing peptide for the Lactobacillus plantarum C11 regulatory system is: […](26 residues) (SEQ. ID. NO: 1).
Observations essentially similar to the ones described by examples 1,2, and 4 have been made in relation to bacteriocin production by Lactobacillus plantarum C11. This strain produces a large number of bacteriocins, corresponding immunity proteins, and the 26-residue inducing peptide described in example 3. The corresponding genes have been cloned and sequenced. […] Promoter elements in front of the transcription start-points resemble those found in front of the genes involved in sakacin P production, as indicated in FIG. 4.
A 26-residue peptide (SEQ ID NO:1) with the sequence given in example 3 was synthesized.

[2] = test system: Lactobacillus sake LTH673; assay: Induction or maintenance of bacteriocin (sakacin P) production, inducing-peptide production and immunity in Lactobacillus sake LTH673 cultures; format: cell-based; conditions: for induction of immunity to sakacin P / induction of production of the inducing peptide itself: added to Bac- Lactobacillus sake LTH673 cells; for induction of bacteriocin (sakacin P) production: added to Bac- Lactobacillus sake LTH673 cultures
Excerpt: This bacteriocin was later shown to be sakacin P (ref. 8). Bacterial cultures obtained by inoculating MRS medium (Difco Laboratories, Detroit, Mich., USA; or Oxoid ltd. Basingstoke, Hampshire, England) with material from this glycerol-stock produced sakacin P (Bac^+ phenotype) and, accordingly, were immune to purified sakacin P.
(§1) The Bac^+ phenotype of cells in this bacterial culture was lost upon diluting a Bac^+ LTH673 culture more than ˜2000-fold in fresh MRS-medium. […] Loss of the Bac^+ phenotype upon dilution or plating could be prevented by adding supernatant of an overnight Bac^+ LTH673 culture at an end concentration of minimally 0.05% (v/v). […] Colonies obtained after plating cells from a Bac^− culture in the presence of supernatant from a Bac^+ culture all were Bac^+.
As indicated above Bac^− colonies of Lactobacillus sake LTH673 were obtained after plating cells from a Bac^+ culture. […] Glycerol stocks of such Bac^− cultures were made and fresh cultures obtained after inoculating MRS medium with an inoculum from such a glycerol stock again were Bac^−. In all cases tested, the only way to restore bacteriocin production was to add supernatant of a Bac^+ culture that thus, apparently, contains an inducing substance.
Lb. sake LTH673 (Bac^+) is immune to purified sakacin P and to several related purified bacteriocins. Immunity is caused by a specific protein that is produced concomitantly with the bacteriocin. Accordingly, we observed that the loss and induction of the Bac^+ phenotype was invariably accompanied by, respectively, the loss and induction of immunity to sakacin P. Another trait invariably linked to changes in the Bac phenotype was the inducing capacity itself: this capacity was only present in supernatants of Bac^+ cultures but not in the supernatants of Bac^− cultures.

[3] = Stability of the inducing component of culture medium to proteinase K and boiling; format: physicochemical
Excerpt: as §1

[4] = test system: genes involved in sakacin P production (FIG. 1) in Lactobacillus sake LTH673; assay: Northern blotting of transcripts of the sakacin P genes in Bac- LTH673 cultures after adding the peptide; format: cell-based; conditions: purified or synthetic peptide
Excerpt: 5. In bacteriocin deficient cultures of LTH673, transcription of the genes depicted in FIG. 1 could not be detected (by Northern blotting).
In cultures of Lactobacillus sake LTH673 with the Bac^− phenotype, transcription of the genes depicted in FIG. 1 could not be detected at any stage during growth (by Northern blotting).

In the case of “KSSAYSLQMGATAIKQVKKLFKKWGW [26-residue inducing peptide]”, the “induction of gene expression (bacteriocin, immunity and inducing peptide genes)” value ([1]; Bac- cultures of Lactobacillus plantarum C11) is reported as “gene expression can be induced” and the “inducing effects of the synthetic peptide compared with Bac+ culture supernatants and the purified peptide” value ([1]; synthetic peptide, in Lactobacillus plantarum C11) is reported as “same inducing effects”.
For “MAGNSSNFIHKIKQIFTHR [19-residue peptide, purified or chemically synthesized]”, the “induction of immunity to sakacin P” value [2] was “restored”, the “induction of production of the inducing peptide itself” value [2] was “restored” and the “induction of immunity to sakacin P” value ([2]; listed as purified peptide) was “resulted in the induction”. The “induction of production of the inducing peptide itself” value ([2]; listed as purified peptide) was “resulted in the induction”, the “induction of bacteriocin (sakacin P) production” value [2] was “restored” and the “induction of bacteriocin (sakacin P) production” value ([2]; listed as purified peptide) was “resulted in the induction”. The “inducing effects of the synthetic peptide compared with Bac+ culture supernatants and the purified peptide” value ([2]; synthetic peptide, in Lactobacillus sake LTH673) was “same inducing effects”, the “inducing activity after boiling” value ([3]; boiling for 10 minutes) was “not after boiling” and the “inducing activity after proteinase K treatment” value ([3]; culture medium treated with proteinase K) was “lost”. For the same sequence, the “detection of transcripts of the genes of FIG. 1” value [4] was “several transcripts could be detected” and the “time until transcripts could be detected after adding the peptide” value [4] was at most 30 min.
